{"source": "patent US20080206203A1", "about": "“Method for Inhibiting Tumor Metastasis” (Inflammation Research Center Company Ltd., priority 2004, published 2008)", "key": {"[1]": {"system": "Colo 201 (colon cancer) cells", "test": "interaction study with Colo201 cancer cells i.v.", "assay_type": "in vivo, human", "procedure": "(§1) To test for inhibition of metastasis, pranlukast is administered orally (instead of intraperitoneally as was done in Example 2) before intravenous injection of the cancer cells. Arachidonic acid (AA) is then administered to the subarachnoid space two hours after pranlukast administration. The volume of CSF, white blood cell counts and cancer cell counts in the CSF are measured every 30 minutes.\n(§2) Cultured human cancer cell lines, Colo 201 (colon cancer) and MKN 74 ([…]), and a cultured rat cancer cell line RCN9 were purchased from Health Science Research Resources Bank (Rinku-minamihama 2-11, Sennan-shi, Osaka, 590-0535, Japan). Human lung cancer cell line QG56 was a gift from Dr. Yukito Ichinose, Department of Laboratory Medicine, Kyusyu Cancer Center, Hukuoka, Japan. Cells were cultured at 37° C. and 5% CO2, in RPMI-1640 (SIGMA, MO, USA) supplemented with 5% fetal bovine serum, 2 mM L-glutamine (Gibco), 100 units penicillin, 100 μg/ml streptomycin (Gibco Invitrogen Corp., Grand Island, N.Y., USA).\n(§3) Rats were anesthetized by sodium pentobarbital (50 mg/kg i.p.).\n(§4) A femoral vein was exposed and a polyethylene tube filled with 0.002% heparin in saline was inserted. The other end of the polyethylene tube was connected to a three way cock valve for the intravenous injection of cancer cells. The animal was then placed in a stereotaxic unit (Type SRS-6 produced by Narishige Scientific Instrument Lab). Fur from the top of the head to the neck was shaved. The study area was disinfected with 70% ethanol. Skin and muscle over the cervical vertebrae were exposed. A hole was made using an 18 G×1 ½ needle passing through the dura via the cisterna magna. One end (2-3 mm) of an SP10 tube (5-6 cm long) was inserted into the subarachnoid space. The cannula was fixed with cyanoacrylic glue to the peripheral tissue. […]\n(§5) The volume (μl) of CSF, WBC counts, and cancer cells counts was measured after the 3rd treatment for 8 hours."}, "[2]": {"system": "capillary permeability and extravasation of white blood cells and tumor cells from the capillary", "test": "interaction study: arachidonic acid-induced capillary permeability and extravasation into CSF (model of metastasis)", "assay_type": "in vivo, rat", "procedure": "as §1, §3\nA femoral vein was exposed and a polyethylene tube filled with 0.002% heparin in saline was inserted. The other end of the polyethylene tube was connected to a three way cock valve for the intravenous injection of cancer cells. The animal was then placed in a stereotaxic unit (Type SRS-6 produced by Narishige Scientific Instrument Lab). Fur from the top of the head to the neck was shaved. The study area was disinfected with 70% ethanol. Skin and muscle over the cervical vertebrae were exposed. A hole was made using an 18 G×1 ½ needle passing through the dura via the cisterna magna. One end (2-3 mm) of an SP10 tube (5-6 cm long) was inserted into the subarachnoid space. The cannula was fixed with cyanoacrylic glue to the peripheral tissue. The other end of the SP10 tube was used for administration of arachidonic acid (8.16 ng/2 μl of saline) and subsequently for collecting cerebrospinal fluid (CSF) every thirty minutes thereafter for 1-2 hours in the in vivo morphological study and for 8 hours in the interaction studies.\nAs a capsule of Onon contains 112.5 mg of pranlukast, the powder from two capsules was stirred in 2.295 ml of deionized water with the electric mixer immediately before oral administration. The volume of administration of pranlukast was 5 ml/kg (dose=490 mg/kg).\nThe number of cancer cells were prepared to 1/100 of the number of neutrophils in each rat using PBS. Because of body weight (400±50 g), the number of cancer cells were between 1.88×10^4 and 2.43×10^4 and the volume of administration of cancer cell was adjusted to 1 ml for each rat.\nArachidonic acid was dissolved in saline and 816.25 ng/2 μl was administered for each rat.\nThree different treatments were administered as follows;\n1st treatment was pranlukast (490 mg/kg p.o.) or deionized water (p.o.).\n2nd treatment was with cancer cells or PBS\n3rd treatment was with arachidonic acid or saline.\nThe first treatment was administered 2 hours before arachidonic acid. The second treatment (cancer cells i.v.) was administered 2-3 minutes before arachidonic acid. Two canula in each animal to the femoral vein and to the subarachnoid space were inserted between the 1st treatment and 2nd treatment.\nThe number on the right side of table corresponds to that of the figures for the results. Four rats were used for each group.\nas §5\nTo analyze whether or not human cancer cells, as foreign substances, affect the immune system in rats, each parameter, i.e., white blood cells counts, tumor cells counts and CSF volume with rat cancer cells (RCN9) was compared with the corresponding parameters of COLO201, MKN 74, and QG56, respectively, using area under time action curves and analysis of variance (Dunnet). Probability value was p<0.05 to be significant."}, "rat ischemia model": {"system": "rat ischemia model", "test": "rat ischemia model, reversible 30 minute occlusion of both carotid arteries followed by reperfusion", "assay_type": "in vivo", "details": "pre-treatment", "procedure": "One of 4-5 rats survived for one week when pranlukast (450 mg/kg i.p.) was administered 30 minutes before the occlusion."}, "[3]": {"system": "infiltration of WBC into the CSF caused by interleukin-6", "test": "interleukin-6-induced infiltration of WBC into the CSF in the intact dog", "assay_type": "in vivo", "details": "pretreatment, three different doses", "source_text": "Additionally, increased infiltration of WBC into the CSF caused by interleukin-6 were inhibited by pretreatment of pranlukast (administered at three different doses) in the intact dog."}, "[4]": {"system": "dextran-induced rat paw edema", "test": "dextran-induced rat paw edema", "assay_type": "in vivo"}, "[5]": {"system": "lung cancer cell line QG56", "test": "interaction study with QG56 cancer cells i.v.", "assay_type": "in vivo, human", "procedure": "as §1, §2, §3, §4, §5"}, "MKN 74 cells": {"system": "MKN 74 cells", "test": "interaction study with MKN74 cancer cells i.v.", "assay_type": "in vivo, human", "details": "pranlukast-MKN 74-saline", "procedure": "as §1, §2, §3, §4, §5"}, "[6]": {"system": "MKN 74 (lung cancer) cells", "test": "interaction study with MKN74 cancer cells i.v.", "assay_type": "in vivo, human", "details": "pranlukast-MKN74-arachidonic acid, 490 mg/kg p.o., rat", "procedure": "as §1, §2, §3, §4, §5"}, "rats": {"system": "rats", "details": "cited from earlier work"}, "[7]": {"details": "pranlukast-Colo201-arachidonic acid, 490 mg/kg p.o., rat"}, "[8]": {"details": "490 mg/kg p.o., eight hours after arachidonic acid"}, "[9]": {"details": "pranlukast (490 mg/kg p.o.)-PBS-arachidonic acid (816 ng/2 μl), FIG. 11"}, "[10]": {"details": "pranlukast-QG56-arachidonic acid, 490 mg/kg p.o., rat"}}, "note": "Like-named read-outs stand apart in the source and are kept apart here."}
{"smiles": "O=C(Nc1cccc2c(=O)cc(-c3nnn[nH]3)oc12)c1ccc(OCCCCc2ccccc2)cc1", "note": "[pranlukast]", "values": [{"measurement": "extravasation of tumor cells", "setting": "[1]; [7]", "result": "significantly inhibited"}, {"measurement": "increasing capillary permeability", "setting": "[1]; [7]", "result": "significantly inhibited"}, {"measurement": "effect when cancer cells present without arachidonic acid", "setting": "[1]; pranlukast-Colo201-saline", "result": "did not have any effect"}, {"measurement": "area under the time action curve, CSF", "setting": "[2]; [8]", "result": "zero"}, {"measurement": "area under the time action curve, white blood cell counts", "setting": "[2]; [8]", "result": "zero"}, {"measurement": "area under the time action curve, tumor cell counts", "setting": "[2]; 490 mg/kg p.o., eight hours after arachidonic acid, tumor cells i.v.", "result": "zero"}, {"measurement": "extravasation of white blood cells caused by arachidonic acid", "setting": "[2]; [9]", "result": "inhibited"}, {"measurement": "increased capillary permeability caused by arachidonic acid", "setting": "[2]; [9]", "result": "inhibited"}, {"measurement": "effect of pranlukast by itself on tumor/WBC counts and CSF volume", "setting": "[2]; pranlukast-PBS-saline, 490 mg/kg p.o., no arachidonic acid", "result": "no effect"}, {"measurement": "survival", "setting": "rat ischemia model", "result": "longer survival"}, {"measurement": "increased infiltration of WBC into the CSF caused by interleukin-6", "setting": "[3]", "result": "inhibited"}, {"measurement": "inhibition of dextran-induced paw edema", "setting": "[4]; about 490 mg/kg, administered intraperitoneally", "result": "completely inhibited"}, {"measurement": "inhibition of dextran-caused paw edema", "setting": "[4]; about 490 mg/kg, administered orally (FIG. 2)", "result": "completely inhibited"}, {"measurement": "inhibition of dextran-induced rat paw edema", "setting": "[4]; dose dependence", "result": "inhibited by pranlukast in a dose-dependent fashion"}, {"measurement": "extravasation of tumor cells", "setting": "[5]; [10]", "result": "significantly inhibited"}, {"measurement": "increasing capillary permeability", "setting": "[5]; [10]", "result": "significantly inhibited"}, {"measurement": "effect when cancer cells present without arachidonic acid", "setting": "[5]; pranlukast-QG56-saline", "result": "did not have any effect"}, {"measurement": "effect when cancer cells present without arachidonic acid", "setting": "MKN 74 cells", "result": "did not have any effect"}, {"measurement": "extravasation of tumor cells", "setting": "[6]", "result": "significantly inhibited"}, {"measurement": "increasing capillary permeability", "setting": "[6]", "result": "significantly inhibited"}, {"measurement": "behavior, changes in body weight, and food intake compared with control group", "setting": "rats; repeated administration 30, 100, 300, 1000 mg/kg/day p.o. for three months and six months", "result": "normal"}, {"measurement": "urine examination and histopathological examinations", "setting": "rats; repeated administration", "result": "normal"}, {"measurement": "behavior, changes in body weight, and food intake compared with control group", "setting": "rats; single administration 30, 100, 300, 1000 mg/kg p.o.", "result": "normal"}, {"measurement": "urine examination and histopathological examinations", "setting": "rats; single administration", "result": "normal"}]}
